The values below come from patent publication US9856218B2, “Inhibitors of PRMT5 and methods of their use” (Ohio State Innovation Foundation, priority 2013, dated 2018).

Data set [1] deals with T1, affinity-purified hSWI/SNF associated PRMT5 (Homo sapiens, UniProt O14744).
T1 construct: made in house
Briefly: Histone methyltransferase assay, [3H]SAM. Format: biochemical. To be noted: for inhibition of PRMT5 methylase activity, potency among inhibitors: FIG. 33A. On the procedure: Histone methylation was performed in the presence of DMSO, and 1-40 μM inhibitor compounds. […] After 1.5 h incubation at 30° C., reaction mixtures were spotted on Whatman P-81 filter paper, washed five times with 10 mL of […] sodium carbonate buffer (pH 9.0) to remove unincorporated [3H]SAM, and methylated peptides were detected by scintillation counting.
Type II PRMT enzymes repress gene transcription and symmetrically dimethylate H3R8 and H4R3, while type I PRMT enzymes activate gene transcription and asymmetrically dimethylate H4R3. Purified PRMT5, PRMT1, PRMT4 and PRMT7 were obtained to perform the assay.
Histone methylation was performed in the presence of DMSO, and 1-40 μM HLCL-32, HLCL-10, HLCL-61 and HLCL-64. […] After a 1.5 h incubation at 30° C. reaction mixtures were spotted on Whatman P-81 filter paper, washed five times with 10 mL of […] sodium carbonate buffer (pH 9.0) to remove unincorporated [^3H]SAM, and methylated peptides were detected by scintillation counting.

A short description of data set [2]: In vivo pharmacokinetics, plasma concentration. As to conditions: mouse, in vivo. Set-up: species or system Mouse. An excerpt:
Pharmacokinetic data of compounds HLCL-7, HLCL-61, and HLCL-66 taken from an in vivo study is illustrated in Table 10. […]

For orientation: IC50 means the concentration needed to halve the response being measured.

T1 sequence (O14744 whole entry): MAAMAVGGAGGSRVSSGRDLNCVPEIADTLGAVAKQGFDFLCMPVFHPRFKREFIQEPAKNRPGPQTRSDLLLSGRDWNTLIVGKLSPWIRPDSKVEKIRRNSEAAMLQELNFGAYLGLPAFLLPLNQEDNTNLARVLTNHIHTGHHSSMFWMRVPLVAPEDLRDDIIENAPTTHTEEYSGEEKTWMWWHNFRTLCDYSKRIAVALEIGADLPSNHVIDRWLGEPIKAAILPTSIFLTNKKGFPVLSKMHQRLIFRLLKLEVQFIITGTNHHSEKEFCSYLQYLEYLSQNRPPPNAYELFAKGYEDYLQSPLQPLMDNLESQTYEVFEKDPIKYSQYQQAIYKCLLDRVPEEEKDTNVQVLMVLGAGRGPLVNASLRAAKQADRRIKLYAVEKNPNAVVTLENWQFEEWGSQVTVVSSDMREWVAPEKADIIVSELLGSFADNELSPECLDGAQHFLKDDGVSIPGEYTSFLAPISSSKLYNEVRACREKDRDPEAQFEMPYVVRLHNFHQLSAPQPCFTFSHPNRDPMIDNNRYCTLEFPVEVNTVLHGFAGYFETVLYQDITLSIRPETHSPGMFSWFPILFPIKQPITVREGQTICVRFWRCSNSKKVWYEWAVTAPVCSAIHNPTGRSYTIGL
T1 sequence (Q9BQA1 whole entry partner): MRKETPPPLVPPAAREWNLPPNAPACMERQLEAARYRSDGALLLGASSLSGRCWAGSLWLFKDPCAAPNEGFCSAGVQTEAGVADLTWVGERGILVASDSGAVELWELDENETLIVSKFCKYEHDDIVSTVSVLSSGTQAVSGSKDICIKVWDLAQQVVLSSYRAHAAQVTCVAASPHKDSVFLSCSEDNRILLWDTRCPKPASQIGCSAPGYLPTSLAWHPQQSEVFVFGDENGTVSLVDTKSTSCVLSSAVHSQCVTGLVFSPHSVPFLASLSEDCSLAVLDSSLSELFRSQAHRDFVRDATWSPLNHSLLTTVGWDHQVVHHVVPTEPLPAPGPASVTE

With `CCn1c2ccccc2c2cc(CNCc3ccccc3OC)ccc21` [HLCL-61], the “inhibition of PRMT5 enzyme” value in data set [1] (10 μM, FIG. 17B) is “the only enzyme that is affected is PRMT5”. The half-inhibitory concentration (IC50) in data set [1] (FIG. 16, 1-40 μM compound, HeLa S3 core histones, read-out: PRMT5 methylation activity IC50) was ~5 µM. In addition, the “inhibition of PRMT5 methylase activity, potency among inhibitors” value in data set [1] (listed as C12) was “most potent of these inhibitors”. Further, the “inhibition of PRMT5 methylase activity, potency among inhibitors” value in data set [1] (listed as CMPD 12) is “most potent in inhibiting enzymatic activity of PRMT5”. Further, in data set [2] (ip, 25 mg/kg), the concentration at 0.08 h worked out at 3150 nM, the concentration at 0.17 h stood at 2280 nM, the concentration at 0.33 h came to 2040 nM and the concentration at 0.5 h was found to be 1830 nM. In data set [2] (ip, 25 mg/kg), this molecule displayed a concentration at 1 h of 1390 nM, a concentration at 2 h of 1500 nM, a concentration at 4 h of 712 nM and a concentration at 6 h of 696 nM. In data set [2] (ip, 25 mg/kg), the concentration at 8 h came to 332 nM and the concentration at 24 h stood at 1.4 nM. Also, in data set [2] (iv, 5 mg/kg), the concentration at 0.08 h was 1220 nM, the concentration at 0.17 h stood at 1610 nM, the concentration at 0.33 h was determined as 702 nM and the concentration at 0.5 h amounted to 994 nM. Further, in data set [2] (iv, 5 mg/kg), the concentration at 1 h is 942 nM, the concentration at 2 h worked out at 525 nM, the concentration at 4 h was determined as 155 nM and the concentration at 6 h worked out at 94.4 nM. Besides, in data set [2] (iv, 5 mg/kg), the concentration at 8 h is 51.1 nM and the concentration at 24 h stood at 6.76 nM.
